# Results from PubChem BioAssay AID1918943 (Molecular Pharmacology Branch, DTP, NCI, 2023).
# pIC50: −log10 of the molar value. Several values for one entry are separate records, joined by “and”; a condition that tells them apart may be missing. Equal values may be shown once.
# Tested on: 855422-203-R-J1-PDC complex spheroid viability
# Experiment: Anticancer human tumor 855422-203-R-J1-PDC patient-derived bladder carcinoma cell line growth inhibition
# Settings: for viability, T/C: stronger effect = lower value
# In short: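 Complex spheroids of tumor cells with HUVEC and human MSCs, exposed to iadademstat combined with other agents. Each agent tested in half-log steps from near clinical Cmax (else 10 microM top), DMSO ≤0.25%.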
# [1] = curve of first compound, second compound 0.1 µM
# [2] = curve of first compound, second compound 0.316 µM
# [3] = curve of first compound, second compound 1 µM
# [4] = curve of first compound, second compound 3.16 µM
# [5] = curve of first compound, second compound 10 µM
# [6] = second compound 0.1 µM, first compound 0.0316 µM
# [7] = second compound 0.1 µM, first compound 0.1 µM
# [8] = second compound 0.316 µM, first compound 0.0316 µM
# [9] = second compound 0.316 µM, first compound 0.1 µM
# [10] = second compound 1 µM, first compound 0.0316 µM
# [11] = second compound 1 µM, first compound 0.1 µM
# [12] = second compound 3.16 µM, first compound 0.0316 µM
# [13] = second compound 3.16 µM, first compound 0.1 µM
# [14] = second compound 10 µM, first compound 0.0316 µM
# [15] = second compound 10 µM, first compound 0.1 µM
# [16] = second compound 0.1 µM, first compound 0.00949 µM
# [17] = second compound 0.1 µM, first compound 0.03 µM
# [18] = second compound 0.1 µM, first compound 0.0949 µM
# [19] = second compound 0.1 µM, first compound 0.3 µM
# [20] = second compound 0.316 µM, first compound 0.00949 µM
# [21] = second compound 0.316 µM, first compound 0.03 µM
# [22] = second compound 0.316 µM, first compound 0.0949 µM
# [23] = second compound 0.316 µM, first compound 0.3 µM
# [24] = second compound 1 µM, first compound 0.00949 µM
# [25] = second compound 1 µM, first compound 0.03 µM
# [26] = second compound 1 µM, first compound 0.0949 µM
# [27] = second compound 1 µM, first compound 0.3 µM
# [28] = second compound 3.16 µM, first compound 0.00949 µM
# [29] = second compound 3.16 µM, first compound 0.03 µM
# [30] = second compound 3.16 µM, first compound 0.0949 µM
# [31] = second compound 3.16 µM, first compound 0.3 µM
# [32] = second compound 10 µM, first compound 0.00949 µM
# [33] = second compound 10 µM, first compound 0.03 µM
# [34] = second compound 10 µM, first compound 0.0949 µM
# [35] = second compound 10 µM, first compound 0.3 µM
# 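Further: drug exposure lasted 7 days starting on day 3 after seeding.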
# 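Wherever viability, T/C is given: luminescence viability as percent of DMSO vehicle wells = 100%.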
smiles,measurement,setting,value
O=C(c1cc(Cc2n[nH]c(=O)c3ccccc23)ccc1F)N1CCN(C(=O)C2CC2)CC1 + NC1CC1c1ccc(-c2cccc(O)c2)cc1,pIC50,[1],< 5.00
same,pIC50,[2],< 5.00
same,pIC50,[3],< 5.00
same,pIC50,[4],< 5.00
same,pIC50,[5],< 5.00
same,"viability, T/C",[6],98.9%
same,"viability, T/C",[7],99.2%
same,"viability, T/C","second compound 0.1 µM, first compound 0.316 µM",99.8%
same,"viability, T/C","second compound 0.1 µM, first compound 1 µM",98%
same,"viability, T/C","second compound 0.1 µM, first compound 3.16 µM",102%
same,"viability, T/C","second compound 0.1 µM, first compound 10 µM",84%
same,"viability, T/C",[8],91.1%
same,"viability, T/C",[9],87.4%
same,"viability, T/C","second compound 0.316 µM, first compound 0.316 µM",97.2%
same,"viability, T/C","second compound 0.316 µM, first compound 1 µM",98.4%
same,"viability, T/C","second compound 0.316 µM, first compound 3.16 µM",101%
same,"viability, T/C","second compound 0.316 µM, first compound 10 µM",81.4%
same,"viability, T/C",[10],90.1%
same,"viability, T/C",[11],87.7%
same,"viability, T/C","second compound 1 µM, first compound 0.316 µM",89.3%
same,"viability, T/C","second compound 1 µM, first compound 1 µM",95.5%
same,"viability, T/C","second compound 1 µM, first compound 3.16 µM",90.3%
same,"viability, T/C","second compound 1 µM, first compound 10 µM",80.8%
same,"viability, T/C",[12],94.4%
same,"viability, T/C",[13],89.7%
same,"viability, T/C","second compound 3.16 µM, first compound 0.316 µM",92.1%
same,"viability, T/C","second compound 3.16 µM, first compound 1 µM",91.3%
same,"viability, T/C","second compound 3.16 µM, first compound 3.16 µM",93.6%
same,"viability, T/C","second compound 3.16 µM, first compound 10 µM",70.1%
same,"viability, T/C",[14],92.2%
same,"viability, T/C",[15],89.4%
same,"viability, T/C","second compound 10 µM, first compound 0.316 µM",85.1%
same,"viability, T/C","second compound 10 µM, first compound 1 µM",89.6%
same,"viability, T/C","second compound 10 µM, first compound 3.16 µM",83.3%
same,"viability, T/C","second compound 10 µM, first compound 10 µM",55.5%
Nc1ccccc1NC(=O)c1ccc(CNC(=O)OCc2cccnc2)cc1 + NC1CCC(NC2CC2c2ccccc2)CC1,pIC50,[1],5.87
same,pIC50,[2],5.84
same,pIC50,[3],5.86
same,pIC50,[4],5.86
same,pIC50,[5],5.97
same,"viability, T/C",[16],94.5%
same,"viability, T/C",[17],85%
same,"viability, T/C",[18],93.3%
same,"viability, T/C",[19],96.1%
same,"viability, T/C","second compound 0.1 µM, first compound 0.949 µM",66.1%
same,"viability, T/C","second compound 0.1 µM, first compound 3 µM",12.3%
same,"viability, T/C",[20],93.5%
same,"viability, T/C",[21],87.5%
same,"viability, T/C",[22],91.5%
same,"viability, T/C",[23],95%
same,"viability, T/C","second compound 0.316 µM, first compound 0.949 µM",73.1%
same,"viability, T/C","second compound 0.316 µM, first compound 3 µM",9.06%
same,"viability, T/C",[24],93.2%
same,"viability, T/C",[25],90.9%
same,"viability, T/C",[26],98%
same,"viability, T/C",[27],95.9%
same,"viability, T/C","second compound 1 µM, first compound 0.949 µM",69.5%
same,"viability, T/C","second compound 1 µM, first compound 3 µM",9.07%
same,"viability, T/C",[28],84.6%
same,"viability, T/C",[29],84.2%
same,"viability, T/C",[30],87.8%
same,"viability, T/C",[31],85.5%
same,"viability, T/C","second compound 3.16 µM, first compound 0.949 µM",72%
same,"viability, T/C","second compound 3.16 µM, first compound 3 µM",5.75%
same,"viability, T/C",[32],88.7%
same,"viability, T/C",[33],81.2%
same,"viability, T/C",[34],86.2%
same,"viability, T/C",[35],87.3%
same,"viability, T/C","second compound 10 µM, first compound 0.949 µM",55.2%
same,"viability, T/C","second compound 10 µM, first compound 3 µM",1.52%
Cn1ncnc1C1c2n[nH]c(=O)c3cc(F)cc(c23)NC1c1ccc(F)cc1 (stereo unspecified) + NC1CC1c1ccc(-c2cccc(O)c2)cc1,pIC50,[1],< 7.00
same,pIC50,[2],< 7.00
same,pIC50,[3],< 7.00
same,pIC50,[4],< 7.00
same,pIC50,[5],< 7.00
same,"viability, T/C","second compound 0.1 µM, first compound 0.000316 µM",91.5%
same,"viability, T/C","second compound 0.1 µM, first compound 0.001 µM",75.1%
same,"viability, T/C","second compound 0.1 µM, first compound 0.00316 µM",74.4%
same,"viability, T/C","second compound 0.1 µM, first compound 0.01 µM",77.3%
same,"viability, T/C",[6],80.9%
same,"viability, T/C",[7],86.2%
same,"viability, T/C","second compound 0.316 µM, first compound 0.000316 µM",89.2%
same,"viability, T/C","second compound 0.316 µM, first compound 0.001 µM",76.7%
same,"viability, T/C","second compound 0.316 µM, first compound 0.00316 µM",76.1%
same,"viability, T/C","second compound 0.316 µM, first compound 0.01 µM",84.2%
same,"viability, T/C",[8],87.6%
same,"viability, T/C",[9],91.9%
same,"viability, T/C","second compound 1 µM, first compound 0.000316 µM",95.8%
same,"viability, T/C","second compound 1 µM, first compound 0.001 µM",97.3%
same,"viability, T/C","second compound 1 µM, first compound 0.00316 µM",96.5%
same,"viability, T/C","second compound 1 µM, first compound 0.01 µM",102%
same,"viability, T/C",[10],82.7%
same,"viability, T/C",[11],90.5%
same,"viability, T/C","second compound 3.16 µM, first compound 0.000316 µM",102%
same,"viability, T/C","second compound 3.16 µM, first compound 0.001 µM",106%
same,"viability, T/C","second compound 3.16 µM, first compound 0.00316 µM",103%
same,"viability, T/C","second compound 3.16 µM, first compound 0.01 µM",109%
same,"viability, T/C",[12],94.1%
same,"viability, T/C",[13],97.2%
same,"viability, T/C","second compound 10 µM, first compound 0.000316 µM",106%
same,"viability, T/C","second compound 10 µM, first compound 0.001 µM",110%
same,"viability, T/C","second compound 10 µM, first compound 0.00316 µM",97.6%
same,"viability, T/C","second compound 10 µM, first compound 0.01 µM",109%
same,"viability, T/C",[14],100%
same,"viability, T/C",[15],102%
CC(C)CC(NC(=O)CNC(=O)c1cc(Cl)ccc1Cl)B1OC(=O)CC(CC(=O)O)(C(=O)O)O1 (stereo unspecified),"viability, T/C",compound 0.000316 µM,105%
same,"viability, T/C",compound 0.001 µM,76.8% and 109%
same,"viability, T/C",compound 0.00316 µM,6.4% and 3.59%
same,"viability, T/C",compound 0.01 µM,1.38% and 0.62%
same,"viability, T/C",compound 0.0316 µM,0.11% and 0.19%
same,"viability, T/C",compound 0.1 µM,0.17% and 0.19%
same,pIC50,curve of compound,8.81 and 8.73
CCN(c1cc(-c2ccc(CN3CCOCC3)cc2)cc(C(=O)NCc2c(C)cc(C)[nH]c2=O)c1C)C1CCOCC1,"viability, T/C",compound 0.00949 µM,105% and 109%
same,"viability, T/C",compound 0.03 µM,95.1% and 101%
same,"viability, T/C",compound 0.0949 µM,94.6% and 97.5%
same,"viability, T/C",compound 0.3 µM,86.5% and 91.6%
same,"viability, T/C",compound 0.949 µM,88% and 88.5%
same,"viability, T/C",compound 3 µM,84.7% and 89%
same,pIC50,curve of compound,< 5.52
Nc1ncn(C2CC(O)C(CO)S2)c(=O)n1 (stereo unspecified) + NC1CCC(NC2CC2c2ccccc2)CC1,pIC50,[1],< 6.52
same,pIC50,[2],< 6.52
same,pIC50,[3],< 6.52
same,pIC50,[4],< 6.52
same,pIC50,[5],< 6.52
same,"viability, T/C","second compound 0.1 µM, first compound 0.000949 µM",99.6%
same,"viability, T/C","second compound 0.1 µM, first compound 0.003 µM",93.5%
same,"viability, T/C",[16],85.8%
same,"viability, T/C",[17],90.1%
same,"viability, T/C",[18],93.8%
same,"viability, T/C",[19],73%
same,"viability, T/C","second compound 0.316 µM, first compound 0.000949 µM",95.5%
same,"viability, T/C","second compound 0.316 µM, first compound 0.003 µM",89.3%
same,"viability, T/C",[20],89%
same,"viability, T/C",[21],89.5%
same,"viability, T/C",[22],97.8%
same,"viability, T/C",[23],80.1%
same,"viability, T/C","second compound 1 µM, first compound 0.000949 µM",87.1%
same,"viability, T/C","second compound 1 µM, first compound 0.003 µM",87.9%
same,"viability, T/C",[24],86.4%
same,"viability, T/C",[25],89.2%
same,"viability, T/C",[26],86.6%
same,"viability, T/C",[27],78.1%
same,"viability, T/C","second compound 3.16 µM, first compound 0.000949 µM",92.4%
same,"viability, T/C","second compound 3.16 µM, first compound 0.003 µM",91.7%
same,"viability, T/C",[28],84%
same,"viability, T/C",[29],92.8%
same,"viability, T/C",[30],87%
same,"viability, T/C",[31],73.4%
same,"viability, T/C","second compound 10 µM, first compound 0.000949 µM",89.5%
same,"viability, T/C","second compound 10 µM, first compound 0.003 µM",81.7%
same,"viability, T/C",[32],82.9%
same,"viability, T/C",[33],82.7%
same,"viability, T/C",[34],82.1%
same,"viability, T/C",[35],74.5%
NS(=O)(=O)OCC1CC(n2ccc3c(NC4CCc5ccccc54)ncnc32)CC1O (stereo unspecified),"viability, T/C",compound 0.00949 µM,97.8% and 103%
same,"viability, T/C",compound 0.03 µM,81% and 96.5%
same,"viability, T/C",compound 0.0949 µM,81.1% and 100%
same,"viability, T/C",compound 0.3 µM,63.5% and 87.5%
same,"viability, T/C",compound 0.949 µM,25.4% and 33.6%
same,"viability, T/C",compound 3 µM,9.22% and 9.95%
same,pIC50,curve of compound,6.36 and 6.18
